In PubChem BioAssay AID179 (DTP/NCI, 2004) one finds EC50, IC50 and outcome data, which are given here for 66 compounds.

Calls of active or inactive are those of the source.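 The calls were made as follows: active = compounds giving half or more protection of infected cells from virus-caused growth loss, again on retest; inactive = the rest.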

In general, EC50 refers to the concentration at which the effect is half-maximal. As usually defined, the IC50 is the midpoint of a concentration-inhibition curve. Read a high IC50 as a need for much substance.

The assay deals with CEM cells HIV-1 protection, formazan growth assay. Kind of assay: NCI AIDS Antiviral Assay. The conditions noted are these: for IC50: measured here: growth of uninfected CEM cells. The procedure, abridged: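 CEM (human) cells, HIV-1 infected vs uninfected, 5-point dosing, formazan growth read-out. Retest threshold 50% protection.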

In the case of `CC(C)OP(=O)(CCCCCCCCC/C=C/c1ccc2c(c1)OCCOCCOCCOCCO2)OC(C)C`, the EC50 was > 200 µM and the IC50 was 12.3 µM.

For `CCN(CC)CCCC(C)Nc1c2ccc(Cl)cc2nc2c(Cl)cc(Cl)cc12` (stereo not given), the EC50 is > 200 µM and the IC50 is 7.94 µM. The matching figures for `O=S(=O)(O)SCCCNCCCCCCNCCCSS(=O)(=O)O`: > 200 µM and 129 µM. Regarding `COC(=O)CSc1cc(Cl)c(C)cc1S(=O)(=O)Nc1n[nH]c(N)n1`, the EC50 is > 200 µM and the IC50 was > 200 µM.

Take `Cc1cc(Br)c(N2C3=C(CC4=C2CCCC4=O)C(=O)CCC3)c(Br)c1`: the EC50 was > 100 µM and the concentration for half-maximal inhibition (IC50) came out at 21.9 µM.

As to `O=C(O)[C@H]1C[C@H](O)CN1C(=O)c1ccccc1SSc1ccccc1C(=O)N1C[C@H](O)C[C@H]1C(=O)O`, the EC50 was > 200 µM and the IC50 is > 200 µM. With `O=C1NC(=Nc2ccccc2Cl)SC1C(=O)Nc1ccc([N+](=O)[O-])cc1[N+](=O)[O-]` (stereo not given), the EC50 is > 115 µM and the IC50 was > 115 µM.

As for `CC1=C(C(=O)Nc2ccccc2C)C(c2ccc(N(C)C)cc2)C(C(=O)Nc2ccccc2C)=C(C)N1`, the EC50 was > 14.5 µM and the IC50 is > 14.5 µM. For `Nc1nnc2nc(CC(=O)c3cccc([N+](=O)[O-])c3)/c(=C/C(=O)c3cccc([N+](=O)[O-])c3)n12`, the EC50 was > 16.2 µM and the IC50 is > 16.2 µM. `C[C@]12CC[C@@H]3c4cc(OCC(F)(F)F)c(O)cc4C(=O)C[C@H]3[C@@H]1CC[C@@H]2O`: the EC50 was > 200 µM and the IC50 came to 3.02 µM. The matching figures for `CC(C)OC(=O)c1cccnc1/C=N/O`: > 1200 µM and 112 µM.

Take `Cn1cc(NC(=O)Nc2cc(C(=O)Nc3cc(C(=O)Nc4ccc(S(=O)(=O)O)c5cc(S(=O)(=O)O)cc(S(=O)(=O)O)c45)n(C)c3)n(C)c2)cc1C(=O)Nc1cc(C(=O)Nc2ccc(S(=O)(=O)O)c3cc(S(=O)(=O)O)cc(S(=O)(=O)O)c23)n(C)c1`: the result was active. For `O=C(Nc1ccc(-c2ccccc2)oc1=O)c1ccccc1`, the EC50 is > 100 µM and the IC50 was > 100 µM. On to `CC(NC(=O)C(N)CCC(=O)O)C(=O)NCP(=O)(O)O` (stereo not given), for which the EC50 was > 200 µM and the IC50 was > 200 µM.

Turning to `CCCC(=O)NC(Nc1ccc(S(=O)(=O)Nc2cc(C)on2)cc1)(C(=O)OCC)C(F)(F)F` (stereo not given), the outcome was inactive. On to `OC[C@H]1N[C@H](CO)[C@@H](O)[C@H]1O`, for which the EC50 is > 200 µM and the half-maximal inhibitory concentration (IC50) worked out at 148 µM.

`O=C(C(=Cn1c(=S)[nH]c2ccc([N+](=O)[O-])cc21)C(=O)c1ccccc1)c1ccccc1`: the EC50 is > 200 µM and the IC50 was found to be 81.3 µM. Consider `O=C(CN1C(=O)CC(c2ccccc2)(c2ccccc2)C1=O)N1CCN(CCO)CC1`, for which the EC50 is > 200 µM and the IC50 came out at 151 µM. The matching figures for `CON(C)c1nc(Cl)nc(N(C)OC)n1`: > 200 µM and > 200 µM. In the case of `O=C1c2ccccc2C(=O)N1CCS(=O)(=O)CCS(=O)(=O)CCN1C(=O)c2ccccc2C1=O`, the EC50 is > 200 µM and the IC50 is > 200 µM. Turning to `CC(C)N(C(=O)C12C3C4C1C1C2C3C41C#N)C(C)C` (stereo not given), the EC50 is > 513 µM and the IC50 was > 513 µM. `CCCOC(=O)C(C)(C)C(OP(OCCC)OCCC)=C(C)C`: the EC50 was > 200 µM and the IC50 is > 200 µM. In the case of `COc1ccc(/C=C2\CCCCC2=O)cc1`, the result was inactive. With `COC(=O)C1=C(C(=O)OC)C23C=CC=CC24C(C(=O)OC)=C(C(=O)OC)C4C1C3` (stereo not given), the EC50 was > 447 µM and the IC50 amounted to 155 µM. The matching figures for `CCC[CH2][Sn]([CH2]CCC)([O]C(=O)c1c(F)cccc1F)[O]C(=O)c1c(F)cccc1F`: > 9.55 µM and 1.91 µM. As to `COc1c2c(nc3ccccc13)-c1cc3c(c(=O)n1C2)COC(=O)C3(O)CC(=O)N1CCOCC1` (stereo not given), the EC50 was > 10 µM and the half-inhibitory concentration (IC50) was found to be 0.741 µM. The matching figures for `COc1ncnc2c1ncn2C1OC(CO)CC1F` (stereo not given): > 186 µM and > 186 µM. The matching figures for `CCOC(=O)/C=C/c1ccc(OC)cc1`: > 34.7 µM and > 34.7 µM. The matching figures for `COc1cccc(CC2C(=O)NC(=O)NC2=O)c1`: > 200 µM and > 200 µM. In the case of `CCOC(=O)C1=C(C)NC(=O)NC1c1ccc(OC)cc1OC` (stereo not given), the EC50 is > 30.9 µM and the IC50 is > 30.9 µM. Consider `CC(=NNC(=S)Nc1cccc(C)c1)c1cccc(C(C)=NNC(=S)Nc2cccc(C)c2)n1`, for which the EC50 is > 200 µM and the IC50 is 27.5 µM. The matching figures for `O=C(OCC1OC(OC(=O)c2cc(O)c(O)c(OC(=O)c3cc(O)c(O)c(O)c3)c2)C(OC(=O)c2cc(O)c(O)c(OC(=O)c3cc(O)c(O)c(O)c3)c2)C(OC(=O)c2cc(O)c(O)c(OC(=O)c3cc(O)c(O)c(O)c3)c2)C1OC(=O)c1cc(O)c(O)c(OC(=O)c2cc(O)c(O)c(O)c2)c1)c1cc(O)c(O)c(OC(=O)c2cc(O)c(O)c(O)c2)c1` (stereo not given): > 60.3 µM and 6.76 µM. On to `CC(=O)N[C@@H]1C(O)CN2C(=O)C(=O)O[C@H](C(O)CO)[C@@H]12` (stereo not given in full), for which the result was inactive.

Regarding `Nc1nc(Cl)cc(OCC2(CO)CCCCC2)n1`, the EC50 was > 200 µM and the IC50 turned out to be 53.7 µM.

As for `CCOC(=O)C1=NN(c2ccc([N+](=O)[O-])cc2)[C@@]2(C)C[C@]3(c4ccccc4)N(c4ccc([N+](=O)[O-])cc4)N=C(C(=O)OCC)N3c3ccccc3N12`, the EC50 was > 200 µM and the concentration for half-maximal inhibition (IC50) is > 200 µM. Regarding `CN(C)c1ccc(/C=C(\C#N)c2nc(-c3cc4ccccc4oc3=O)cs2)cc1`, the EC50 is 9.77 µM and the half-inhibitory concentration (IC50) is > 100 µM. The matching figures for `C=CC1CCC[N+]1(CC(=O)OCC)Cc1ccccc1` (stereo not given): > 200 µM and > 200 µM.

Turning to `C/C=C1\C=[N+]([O-])C2CC1C(C(=O)OC)C13C[C@@H](OC)OC21Nc1ccccc13` (stereo not given in full), the outcome was inactive. Regarding `COc1ccc(/C=C2\C(=O)NC(=O)c3ccccc32)cc1OC`, the EC50 is > 60.3 µM and the 50% inhibitory concentration (IC50) came out at 31.6 µM.

On to `O=C1OC(O)C(Oc2ccc(Cl)cc2)=C1Cl` (stereo not given), for which the EC50 was > 437 µM and the IC50 came out at 195 µM. Taken in the same sequence, the figures for `C=CCCCCOCOCCOC` were > 138 µM and > 138 µM. The matching figures for `COc1nc(N)nc2c1CSc1ccccc1-2`: > 77.6 µM and > 77.6 µM. Take `O=c1/c(=C/c2ccccc2[N+](=O)[O-])sc2nnc(-c3ccco3)n12`: the EC50 was > 29.5 µM and the IC50 was > 29.5 µM. In the case of `Nc1nc(Cl)c(N=Nc2ccc(Cl)cc2)c(NCC2(CO)CCC2)n1`, the EC50 is > 200 µM and the IC50 is > 200 µM.

On to `Cc1cn(C2CC(F)C(CO)O2)c(=O)[nH]c1=O` (stereo not given), for which the EC50 is 0.011 µM and the IC50 was 2 µM. The matching figures for `O=C1c2ccccc2C(=O)c2c1ccc1c3ccccc3n(-c3ccccc3)c21`: > 50.1 µM and 0.871 µM. The matching figures for `Cn1c(=Nc2ccccc2[N+](=O)[O-])sc2ccccc21`: > 200 µM and > 100 µM. As to `Oc1cccc(/C=C/c2ccncc2)c1`, the EC50 is > 36.3 µM and the IC50 was > 36.3 µM. `COc1cc(C2c3cc4c(cc3OC(N3CCOCC3)C2C)OCO4)cc(OC)c1O` (stereo not given): the EC50 is > 200 µM and the IC50 is 8.51 µM.

`CN(C)CC1(C)Cc2sccc2C1=O` (stereo not given): the EC50 is > 200 µM and the IC50 is > 200 µM. Consider `CCOC(=O)/C(Cc1cc(=O)n(C)c2ccccc12)=N\Nc1ccccc1`, for which the EC50 was > 200 µM and the IC50 was > 200 µM. Take `CCCCCCCCCCOC(=O)NCCC`: the result was inactive. As to `CCOc1cnc(C(O)(c2ccccc2)c2ccccc2)o1`, the EC50 is 19.1 µM and the half-inhibitory concentration (IC50) was 148 µM. Turning to `CCOC(COc1c2occc2cc2ccc(=O)oc12)OCC`, the EC50 is > 141 µM and the 50% inhibitory concentration (IC50) is 51.3 µM.

In the case of `OC(c1cc2ccccc2[nH]1)C(O)(c1cc2ccccc2[nH]1)c1cc2ccccc2[nH]1` (stereo not given), the EC50 is > 12.9 µM and the IC50 worked out at 11 µM. With `C/C(CC(C)C)=N/Nc1nc(C)cc(=O)[nH]1`, the EC50 is > 200 µM and the IC50 was > 200 µM. As for `Cn1cnnc1Sc1c([N+](=O)[O-])nc(-c2ccc([N+](=O)[O-])cc2)n1C`, the EC50 is > 100 µM and the IC50 came out at 2.95 µM. With `NC(N)=N/N=C(/CCN1CCCC1)CC(c1ccccc1)c1c(O)c2ccccc2oc1=O` (stereo not given), the EC50 is > 38.9 µM and the IC50 is > 38.9 µM. As to `COCCOCCOCCOCCOCCOCCOCCOCCOCCOCCOCCOCCOCCOCCOCCOCCOCC(=O)N(CCn1ccc(NC(c2ccccc2)(c2ccccc2)c2ccccc2)nc1=O)CCn1ccc(NC(c2ccccc2)(c2ccccc2)c2ccccc2)nc1=O`, the EC50 was 20 µM and the concentration for half-maximal inhibition (IC50) came out at 22.9 µM. The matching figures for `Nc1nc(N)c(-c2ccccc2)c(C(=O)Nc2ccccc2)n1`: > 407 µM and > 407 µM. The matching figures for `N#Cc1c(NC(=O)CN2CCOCC2)c(C(=O)Nc2ccccc2)n2c1CCCC2`: > 200 µM and > 200 µM. Regarding `CCOC(=O)C1N(S(=O)(=O)c2ccc(C)cc2)CCC12c1ccccc1N(C(C)=O)C2c1ccc(OC)c(OC)c1` (stereo not given), the outcome was inactive. Regarding `CC1OC(OC2C(OC(=O)[C@]34CCC(C)(C)CC3C3=CCC5[C@@]6(C)C[C@H](O)[C@H](OC7OC(COC8OC(CO)C(O)C(O)C8O)C(O)C(O)C7O)[C@@](C)(C(=O)O)C6CC[C@@]5(C)C3(C)CC4)OCC(O)C2O)C(O)C(O)C1OC1OCC(O)C(O)C1O` (stereo not given in full), the EC50 was > 110 µM and the IC50 was > 110 µM.

Regarding `O=C1C2C3CC(C4C5C=CC(C5)C34)C2C2C3CC(C12)C1C2C=CC(C2)C31` (stereo not given), the EC50 was > 28.8 µM and the IC50 was > 28.8 µM. As for `C/C=N\n1c(C)c(C#N)c(C#N)c1N`, the EC50 is > 200 µM and the IC50 is > 200 µM.

In the case of `Clc1ccc(C(=C=C(c2ccccc2)c2ccccc2)c2ccc(Cl)cc2)cc1`, the EC50 is > 22.9 µM and the IC50 is > 22.9 µM.
